From US11202776B2, “Treatment of gastroparesis with triazaspiro[4.5]decanone” (Millennium Pharmaceuticals, Inc., priority 2017, dated 2021)
Counter-ions that a name gives are not always drawn. Like-named read-outs stand apart in the source and are kept apart here.

Tests used:
[1] = Phase I single-ascending dose (SAD) pharmacokinetics incl. food effect, plasma concentration of the Compound; assay type: in vivo, human; details: for half-life / AUC(0-inf) / AUC(0-t) / Cmax / Tmax: human, plasma
Protocol: (§1) A phase I randomized, double-blind, placebo-controlled, adaptive-design, single-ascending dose (SAD) and multiple-ascending dose (MAD) study was conducted in healthy human subjects to evaluate the safety, tolerability, pharmacokinetics (PK), pharmacodynamics (PD), food effect, and optimal oral dose of 3-((1-cyclohexyl-4-oxo-8-(4-oxo-4-phenylbutyl)-1,3,8-triazaspiro[4.5]decan-3-yl)methyl)benzoic acid maleate (hereinafter, “the Maleate Salt”). The SAD phase included an arm to evaluate food effect on the PK of the Maleate Salt. The SAD phase also evaluated the effect of the Maleate Salt on ECG parameters, including an assessment of QT-interval changes using exposure-response analysis.
The Maleate Salt was formulated in the study as immediate-release, hard gelatin capsules for oral administration. Each capsule contained 5 mg or 25 mg of the Maleate Salt, as well as microcrystalline cellulose NF (AVICEL® PH-102), sodium starch glycolate NF (EXPLOTAB®), and magnesium stearate NF, all filled into a size 3 hard gelatin capsule. A matching placebo containing the same amount of microcrystalline cellulose NF in place of the Maleate Salt was used in the study. The Maleate Salt capsules and matching placebo capsules were packaged in high-density polyethylene (HDPE) bottles with polypropylene caps and stored at controlled conditions per the USP.
A total of 54 subjects received at least 1 dose of the Maleate Salt, ranging from 5 mg to the maximum single PO dose of 300 mg. Six subjects received a maximum single PO dose of 300 mg and 5 subjects received a total of 900 mg of the Maleate Salt over 5-day period (100 mg BID for 4 days with single 100 mg on Day 5).
The SAD phase had 7 cohorts dosed at 5 mg (cohort 1), 10 mg (cohort 2), 25 mg (cohort 3), 50 mg (cohort 4), 100 mg (cohort 5), 200 mg (cohort 6), and 300 mg (cohort 7) of the Maleate Salt. In each cohort, there were 6 active- and 2 placebo-treated subjects. Subjects were administered the Maleate Salt in the fasting state with 1 exception: subjects in the 25 mg cohort (cohort 3) received the Maleate Salt while fasting and again after a high-fat breakfast to determine food effect on PK.
Mean plasma concentration-time profiles for 3-((1-cyclohexyl-4-oxo-8-(4-oxo-4-phenylbutyl)-1,3,8-triazaspiro[4.5]decan-3-yl)methyl)benzoic acid (hereinafter, “the Compound”) following a single PO dose of the Maleate Salt are shown in FIG. 1.
In evaluating food effect on the PK of the Maleate Salt, subjects on Day 1 in cohort 3 were administered a single dose of the Maleate Salt at 25 mg or placebo in the fasted state. On Day 3, the same subjects received an identical dose 30 minutes after consumption of a standardized, high-fat, high-calorie breakfast.

[2] = molecular target: T1, D2 receptor (Homo sapiens, UniProt P14416); test: Clinical PD: serum prolactin concentration as marker of pharmacologic activity (D2 receptor target engagement); assay type: in vivo
T1 construct: from tissue; host or cells: healthy human subjects in vivo (lactotroph cells of the anterior pituitary gland)
T1 sequence (P14416 whole entry): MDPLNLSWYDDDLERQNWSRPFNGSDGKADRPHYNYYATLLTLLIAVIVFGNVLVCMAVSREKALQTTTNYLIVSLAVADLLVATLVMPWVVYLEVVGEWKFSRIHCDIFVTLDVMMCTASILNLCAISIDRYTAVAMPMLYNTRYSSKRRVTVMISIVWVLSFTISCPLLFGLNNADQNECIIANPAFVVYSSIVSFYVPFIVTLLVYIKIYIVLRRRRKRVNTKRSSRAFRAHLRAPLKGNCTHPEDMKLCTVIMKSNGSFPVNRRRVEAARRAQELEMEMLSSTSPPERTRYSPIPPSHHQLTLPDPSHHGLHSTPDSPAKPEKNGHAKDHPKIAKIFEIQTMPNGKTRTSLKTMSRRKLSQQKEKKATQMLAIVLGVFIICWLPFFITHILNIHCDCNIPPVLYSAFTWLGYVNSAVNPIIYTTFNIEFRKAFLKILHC
Protocol: as §1
In the same phase I study, serum prolactin concentrations were evaluated as a marker of pharmacologic activity (D2 receptor target engagement). Prolactin is primarily secreted from lactotroph cells of the anterior pituitary gland, and the release of prolactin from these cells is under inhibitory control by DA. Fitzgerald and Dinan, J. Psychopharmacol. 2008, 22, 12-19.
The increases were substantial compared to placebo. The prolactin response was maximal at the 10 mg dose of the Maleate Salt in the SAD phase.

[3] = po, 5 mg, single PO dose 5 mg, fasted, healthy subjects
[4] = po, 10 mg, single PO dose 10 mg, fasted, healthy subjects
[5] = po, 25 mg, single PO dose 25 mg, fasted, healthy subjects
[6] = po, 25 mg, single PO dose 25 mg, fed (high-fat breakfast), healthy subjects
[7] = po, 50 mg, single PO dose 50 mg, fasted, healthy subjects
[8] = po, 100 mg, single PO dose 100 mg, fasted, healthy subjects
[9] = po, 200 mg, single PO dose 200 mg, fasted, healthy subjects
[10] = po, 300 mg, single PO dose 300 mg, fasted, healthy subjects

## O=C(O)c1cccc(CN2CN(C3CCCCC3)C3(CCN(CCCC(=O)c4ccccc4)CC3)C2=O)c1 [the Maleate Salt, 3-((1-cyclohexyl-4-oxo-8-(4-oxo-4-phenylbutyl)-1,3,8-triazaspiro[4.5]decan-3-yl)methyl)benzoic acid maleate]
[1]; 25 mg single dose, high-fat meal prior to dosing vs fasted
  Food effect on Tmax: did not alter Tmax
[1]; SAD phase, fasted conditions, 5-300 mg
  Exposure versus dose administered: approximately proportional to the dose administered
[1]; oral, across all cohorts in the SAD phase, read-out: Arithmetic mean T1/2 in fasted subjects (converted)
  half-life: ~4 h
[1]; [3]
  AUC(0-inf): 4.5 ng·h/mL
  AUC(0-t): 4.3 ng·h/mL
  Cmax: 2.1 ng/mL
[1]; po, 5 mg, single PO dose 5 mg, fasted, healthy subjects, read-out: T1/2 (converted)
  half-life: ~1.6 h
[1]; po, 5 mg, single PO dose 5 mg, fasted, healthy subjects, read-out: Tmax
  Tmax: 0.83 h
[1]; [4]
  AUC(0-inf): 13.1 ng·h/mL
  AUC(0-t): 12.9 ng·h/mL
  Cmax: 6.2 ng/mL
[1]; po, 10 mg, single PO dose 10 mg, fasted, healthy subjects, read-out: T1/2 (converted)
  half-life: ~1.6 h
[1]; po, 10 mg, single PO dose 10 mg, fasted, healthy subjects, read-out: Tmax
  Tmax: 1.21 h
[1]; [5]
  AUC(0-inf): 30.4 ng·h/mL
  AUC(0-t): 30.5 ng·h/mL
  Cmax: 10.5 ng/mL
[1]; po, 25 mg, single PO dose 25 mg, fasted, healthy subjects, read-out: T1/2 (converted)
  half-life: 6 h
[1]; po, 25 mg, single PO dose 25 mg, fasted, healthy subjects, read-out: Tmax
  Tmax: 1.8 h
[1]; [6]
  AUC(0-inf): 17.2 ng·h/mL
  AUC(0-t): 17.6 ng·h/mL
  Cmax: 6.7 ng/mL
[1]; po, 25 mg, single PO dose 25 mg, fed (high-fat breakfast), healthy subjects, read-out: T1/2 (converted)
  half-life: 7 h
[1]; po, 25 mg, single PO dose 25 mg, fed (high-fat breakfast), healthy subjects, read-out: Tmax
  Tmax: 2.2 h
[1]; [7]
  AUC(0-inf): 56.7 ng·h/mL
  AUC(0-t): 53.2 ng·h/mL
  Cmax: 22 ng/mL
[1]; po, 50 mg, single PO dose 50 mg, fasted, healthy subjects, read-out: T1/2 (converted)
  half-life: 3.1 h
[1]; po, 50 mg, single PO dose 50 mg, fasted, healthy subjects, read-out: Tmax
  Tmax: 1.04 h
[1]; [8]
  AUC(0-inf): 180 ng·h/mL
  AUC(0-t): 104 ng·h/mL
  Cmax: 48.3 ng/mL
[1]; po, 100 mg, single PO dose 100 mg, fasted, healthy subjects, read-out: T1/2 (converted)
  half-life: 5.4 h
[1]; po, 100 mg, single PO dose 100 mg, fasted, healthy subjects, read-out: Tmax
  Tmax: 1.78 h
[1]; [9]
  AUC(0-inf): 242 ng·h/mL
  AUC(0-t): 240 ng·h/mL
  Cmax: 106 ng/mL
[1]; po, 200 mg, single PO dose 200 mg, fasted, healthy subjects, read-out: T1/2 (converted)
  half-life: 5.4 h
[1]; po, 200 mg, single PO dose 200 mg, fasted, healthy subjects, read-out: Tmax
  Tmax: 1.24 h
[1]; [10]
  AUC(0-inf): 446 ng·h/mL
  AUC(0-t): 421 ng·h/mL
  Cmax: 192 ng/mL
[1]; po, 300 mg, single PO dose 300 mg, fasted, healthy subjects, read-out: T1/2 (converted)
  half-life: 5.1 h
[1]; po, 300 mg, single PO dose 300 mg, fasted, healthy subjects, read-out: Tmax
  Tmax: 1.88 h
[1]; po, 25 to 300 mg dose levels, single PO dose, read-out: Arithmetic mean T1/2 in fasted subjects (converted)
  half-life: 3.1 to 6 h
[1]; po, SAD phase, single PO doses, read-out: Median Tmax
  Tmax: ~1.1 h
[2]; MAD phase, after BID dosing for 5 days
  Accumulation in serum prolactin: little if any accumulation
[2]; SAD phase
  Dose at which the prolactin response was maximal: 10 mg
[2]; across all 48 single-dose administrations
  Median serum prolactin Tmax: approximately 1.1 h
[2]; following oral administration
  Increases in serum prolactin compared to placebo: substantial
[2]; following oral administration, SAD and MAD phases
  Serum prolactin concentration: increased rapidly
